Assay results reported in PubChem BioAssay AID328 (DTP/NCI, 2004).
Where “and” joins values, the source holds several entries; their conditions need not be identical. Equal entries are not always repeated. Inconclusive results and toxic doses are left out. Rule for the calls: active = survival T/C of 150% or more; inactive = T/C below 125% in these data.

System: BDF1 mice, P388 leukemia ip, median survival T/C
Test: NCI In Vivo Anticancer Drug Screen. Data for tumor model P388 Leukemia (intraperitoneal) in B6D2F1 (BDF1) mice
Details: endpoint: median survival time, higher = longer survival
How it was run: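 Read-out is survival of treated animals expressed relative to the vehicle group, as a T/C ratio.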

[1] = dose: 100.0 mg/kg/injection, schedule: Q01DX009 (ip), vehicle: saline with Tween-80
[2] = dose: 200.0 mg/kg/injection, schedule: Q01DX009 (ip), vehicle: saline with Tween-80
[3] = dose: 400.0 mg/kg/injection, schedule: Q01DX009 (ip), vehicle: saline with Tween-80
[4] = dose: 100.0 mg/kg/injection, schedule: Q04DX003 (ip), vehicle: Klucel (hydroxypropylcellulose) (HPC)
[5] = dose: 200.0 mg/kg/injection, schedule: Q04DX003 (ip), vehicle: Klucel (hydroxypropylcellulose) (HPC)
[6] = dose: 50.0 mg/kg/injection, schedule: Q01DX009 (ip), vehicle: saline
[7] = dose: 100.0 mg/kg/injection, schedule: Q01DX009 (ip), vehicle: saline
[8] = dose: 400.0 mg/kg/injection, schedule: Q04DX003 (ip), vehicle: Klucel (hydroxypropylcellulose) (HPC)
[9] = dose: 50.0 mg/kg/injection, schedule: Q04DX003 (ip), vehicle: saline with Tween-80
[10] = dose: 100.0 mg/kg/injection, schedule: Q04DX003 (ip), vehicle: saline with Tween-80
[11] = dose: 200.0 mg/kg/injection, schedule: Q04DX003 (ip), vehicle: saline with Tween-80
[12] = dose: 50.0 mg/kg/injection, schedule: Q01DX009 (ip), vehicle: saline with Tween-80
[13] = dose: 400.0 mg/kg/injection, schedule: Q04DX003 (ip), vehicle: saline with Tween-80

Measured: T/C

Nc1ccccc1-n1nc2ccc3ccccc3c2n1
inactive: [1] 105 % of control | dose: 132.0 mg/kg/injection, schedule: Q01DX009 (ip), vehicle: saline with Tween-80 90 % of control | [2] 100 % of control | dose: 300.0 mg/kg/injection, schedule: Q01DX009 (ip), vehicle: saline with Tween-80 95 % of control | [3] 105 % of control

CCC(C)Nc1ccccc1 (stereo unspecified)
inactive: dose: 50.0 mg/kg/injection, schedule: Q04DX003 (ip), vehicle: Klucel (hydroxypropylcellulose) (HPC) 95 % of control | [4] 100 % of control | [5] 108 % of control

O=C1NCN(c2ccccc2)C12CCNCC2
inactive: dose: 25.0 mg/kg/injection, schedule: Q01DX009 (ip), vehicle: saline 90 % of control | [6] 113 % of control | [7] 100 % of control

CCOC(=O)C(C)Cl (stereo unspecified)
inactive: dose: 50.0 mg/kg/injection, schedule: Q01DX009 (ip), vehicle: Klucel (hydroxypropylcellulose) (HPC) 104 % of control | dose: 100.0 mg/kg/injection, schedule: Q01DX009 (ip), vehicle: Klucel (hydroxypropylcellulose) (HPC) 100 % of control | [4] 110 % of control | dose: 200.0 mg/kg/injection, schedule: Q01DX009 (ip), vehicle: Klucel (hydroxypropylcellulose) (HPC) 91 % of control | [5] 105 % of control | [8] 105 % of control

CCOC(=O)CCN1CCCC1
inactive: [7] 100 % of control | dose: 100.0 mg/kg/injection, schedule: Q04DX003 (ip), vehicle: saline 100 % of control | dose: 200.0 mg/kg/injection, schedule: Q01DX009 (ip), vehicle: saline 91 % of control | dose: 200.0 mg/kg/injection, schedule: Q04DX003 (ip), vehicle: saline 100 % of control | dose: 400.0 mg/kg/injection, schedule: Q01DX009 (ip), vehicle: saline 100 % of control | dose: 400.0 mg/kg/injection, schedule: Q04DX003 (ip), vehicle: saline 95 % of control

COc1ccccc1NC(=O)Nc1ccc(C(=O)OCC(C)C)cc1
inactive: [9] 108 % of control | [10] 91 % of control | [11] 100 % of control

NNC(=O)C(=O)NCc1ccco1
inactive: [12] 98 % of control

CN(C)CCCc1c2ccccc2nc2ccc(Cl)cc12
inactive: dose: 1.56 mg/kg/injection, schedule: Q01DX009 (ip), vehicle: saline 109 % of control | dose: 3.12 mg/kg/injection, schedule: Q01DX009 (ip), vehicle: saline 90 % of control | dose: 6.0 mg/kg/injection, schedule: Q04DX003 (ip), vehicle: saline 104 % of control | dose: 6.25 mg/kg/injection, schedule: Q01DX009 (ip), vehicle: saline 100 % of control and 109 % of control | dose: 11.0 mg/kg/injection, schedule: Q01DX009 (ip), vehicle: saline 109 % of control | dose: 12.0 mg/kg/injection, schedule: Q04DX003 (ip), vehicle: saline 109 % of control | dose: 12.5 mg/kg/injection, schedule: Q01DX009 (ip), vehicle: saline 100 % of control | dose: 16.0 mg/kg/injection, schedule: Q01DX009 (ip), vehicle: saline 100 % of control | dose: 25.0 mg/kg/injection, schedule: Q04DX003 (ip), vehicle: saline 109 % of control | dose: 37.0 mg/kg/injection, schedule: Q01DX009 (ip), vehicle: saline 118 % of control | [6] 109 % of control

CC1=C(Cl)C(Cl)(Cl)C(=O)C(=O)C1(Cl)Cl
inactive: dose: 6.25 mg/kg/injection, schedule: Q01DX009 (ip), vehicle: other 100 % of control | dose: 12.5 mg/kg/injection, schedule: Q01DX009 (ip), vehicle: other 109 % of control | dose: 25.0 mg/kg/injection, schedule: Q01DX009 (ip), vehicle: other 113 % of control

O=C1NC(=O)C(c2ccccc2)(c2ccc(Cl)cc2Cl)N1 (stereo unspecified)
inactive: [1] 95 % of control | [10] 100 % of control | [2] 91 % of control | [11] 90 % of control | [13] 100 % of control

Cc1ccc(N=C(c2ccccc2)c2ccc([N+](=O)[O-])cc2)cc1
inactive: dose: 100.0 mg/kg/injection, schedule: Q01DX001 (ip), vehicle: Klucel (hydroxypropylcellulose) (HPC) 108 % of control | dose: 200.0 mg/kg/injection, schedule: Q01DX001 (ip), vehicle: Klucel (hydroxypropylcellulose) (HPC) 100 % of control | dose: 400.0 mg/kg/injection, schedule: Q01DX001 (ip), vehicle: Klucel (hydroxypropylcellulose) (HPC) 104 % of control

O=C(O)/C=C/c1c(Cl)cccc1Cl
inactive: [12] 106 % of control | [1] 113 % of control

CN(C)c1ccc(/C=C\c2ccnc3ccc(-c4ccccc4)cc23)cc1
inactive: [12] 94 % of control | [1] 94 % of control | [2] 94 % of control

CCOC(=O)C1=C(C)NC(=O)NC1c1ccc(N=Cc2cc(Br)ccc2O)cc1 (stereo unspecified)
inactive: dose: 75.0 mg/kg/injection, schedule: Q01DX001 (ip), vehicle: saline with Tween-80 95 % of control | dose: 150.0 mg/kg/injection, schedule: Q01DX001 (ip), vehicle: saline with Tween-80 90 % of control | dose: 300.0 mg/kg/injection, schedule: Q01DX001 (ip), vehicle: saline with Tween-80 90 % of control

CCCCCCCC(=O)Nc1ccc(C)c(C)c1
inactive: [10] 109 % of control | [11] 109 % of control | [13] 109 % of control

O=C(O)/C=C/C(=O)Nc1ccc(I)cc1
inactive: [12] 109 % of control | [1] 109 % of control | [2] 104 % of control

O=Cc1nccn1Cc1ccccc1
inactive: dose: 12.5 mg/kg/injection, schedule: Q01DX009 (ip), vehicle: saline with Tween-80 116 % of control | dose: 12.5 mg/kg/injection, schedule: Q04DX003 (ip), vehicle: saline with Tween-80 100 % of control | dose: 25.0 mg/kg/injection, schedule: Q01DX009 (ip), vehicle: saline with Tween-80 100 % of control | dose: 25.0 mg/kg/injection, schedule: Q04DX003 (ip), vehicle: saline with Tween-80 103 % of control | [12] 108 % of control | [9] 96 % of control | [1] 105 % of control | [10] 106 % of control | [2] 98 % of control | [11] 101 % of control and 106 % of control | dose: 300.0 mg/kg/injection, schedule: Q04DX003 (ip), vehicle: saline with Tween-80 103 % of control | [3] 107 % of control

Cn1ncc(=O)c(Cl)c1S
inactive: dose: 50.0 mg/kg/injection, schedule: Q01DX005 (ip), vehicle: saline with Tween-80 97 % of control | dose: 100.0 mg/kg/injection, schedule: Q01DX005 (ip), vehicle: saline with Tween-80 93 % of control | dose: 200.0 mg/kg/injection, schedule: Q01DX005 (ip), vehicle: saline with Tween-80 99 % of control

CCCB(O)O
inactive: dose: 100.0 mg/kg/injection, schedule: Q01DX001 (ip), vehicle: saline 100 % of control | dose: 200.0 mg/kg/injection, schedule: Q01DX001 (ip), vehicle: saline 113 % of control | dose: 400.0 mg/kg/injection, schedule: Q01DX001 (ip), vehicle: saline 95 % of control

CN(C)c1ccc2cc(S(=O)(=O)O)cc(O)c2c1
inactive: [1] 95 % of control | [2] 91 % of control | [3] 91 % of control

CC(C)=C(CO)CCC(C)C
inactive: [9] 109 % of control | [10] 122 % of control | [11] 118 % of control

CC(=O)CC(C)=O.CC(=O)CC(C)=O.C[CH2][Sn][CH2]C
inactive: dose: 12.5 mg/kg/injection, schedule: Q01DX001 (ip), vehicle: Klucel (hydroxypropylcellulose) (HPC) 116 % of control

CC(C)OC(=O)Oc1cccc2c1C(=O)c1ccccc1C2=O
inactive: [4] 104 % of control | [5] 108 % of control | [8] 104 % of control

O=S1(=O)C2CCCCC2(N2CCOCC2)C1c1ccccc1 (stereo unspecified)
inactive: dose: 100.0 mg/kg/injection, schedule: Q04DX003 (ip), vehicle: other 100 % of control | dose: 178.0 mg/kg/injection, schedule: Q04DX003 (ip), vehicle: other 109 % of control | dose: 200.0 mg/kg/injection, schedule: Q04DX003 (ip), vehicle: other 104 % of control | dose: 266.0 mg/kg/injection, schedule: Q04DX003 (ip), vehicle: other 104 % of control | dose: 400.0 mg/kg/injection, schedule: Q04DX003 (ip), vehicle: other 100 % of control
